In data set [1] the target is GST-MEK (p45MEK) and GST-MAPK (p44MAP kinase) (Homo sapiens, UniProt Q02750). Briefly: Cascade assay for inhibitors of the MAP kinase pathway (In Vitro). It counts as biochemical. Particulars: incorporation of 32P into myelin basic protein. On the procedure:
Cascade Assay for Inhibitors of the MAP Kinase Pathway
Incorporation of ^32P into myelin basic protein (MBP) was assayed in the presence of a glutathione S-transferase fusion protein containing p44MAP kinase (GST-MAPK) and a glutathione S-transferase fusion protein containing p45MEK (GST-MEK). The assay solution contained 20 mM HEPES, pH 7.4, 10 mM MgCl2, 1 mM MnCl2, 1 mM EGTA, 50 μM [γ-^32P]ATP, 10 μg GST-MEK0.5 μg GST-MAPK and 40 μg MBP in a final volume of 100 μL. Reactions were stopped after 20 minutes by addition of trichloroacetic acid and filtered through a GF/C filter mat. ^32P retained on the filter mat was determined using a 1205 Betaplate. Compounds were assessed at 10 μM for ability to inhibit incorporation of ^32P.
To ascertain whether compounds were inhibiting GST-MEK or GST MAPK, two additional protocols were employed. In the first protocol, compounds were added to tubes containing GST-MEK, followed by addition of GST-MAPK, MBP and [γ-^32P]ATP. In the second protocol, compounds were added to tubes containing both GST-MEK and GST-MAPK, followed by MBP and [γ-^32P]ATP.

In data set [2] the test system is activation of MAP kinase in whole cells. Briefly: In Vivo (Cell Culture): whole cell MAP kinase assay. Format: cell-based. The protocol: Whole Cell MAP Kinase Assay
To determine if compounds were able to block activation of MAP kinase in whole cells, the following protocol was used: Cells were plated in multi-well plates and grown to confluence. Cells were then serum-deprived overnight. Cells were exposed to the desired concentrations of compound or vehicle (DMSO) for 30 minutes, followed by addition of a growth factor, for example, PDGF (100 ng/mL). After a 5-minute treatment with the growth factor, cells were washed with PBS, then lysed in a buffer consisting of 70 mM NaCl, 10 mM HEPES (pH 7.4), 50 mM glycerol phosphate, and 1% Triton X-100. Lysates were clarified by centrifugation at 13,000× g for 10 minutes. Five micrograms of the resulting supernatants were incubated with 10 μg microtubule associated protein-2 (Map2) for 15 minutes at 30° C. in a final volume of 25 μL containing 50 mM Tris (pH 7.4), 10 mM MgCl2, 2 mM EGTA and 30 uM [γ-^32P]ATP. Reactions were terminated by addition of Laemmli sample buffer. Phosphorylated Map2 was resolved on 7.5% acrylamide gels and incorporated radioactivity determined by autoradiography and subsequent excision of the bands followed by scintillation counting.

Chain of GST-MEK (p45MEK) and GST-MAPK (p44MAP kinase) (Q02750 whole entry): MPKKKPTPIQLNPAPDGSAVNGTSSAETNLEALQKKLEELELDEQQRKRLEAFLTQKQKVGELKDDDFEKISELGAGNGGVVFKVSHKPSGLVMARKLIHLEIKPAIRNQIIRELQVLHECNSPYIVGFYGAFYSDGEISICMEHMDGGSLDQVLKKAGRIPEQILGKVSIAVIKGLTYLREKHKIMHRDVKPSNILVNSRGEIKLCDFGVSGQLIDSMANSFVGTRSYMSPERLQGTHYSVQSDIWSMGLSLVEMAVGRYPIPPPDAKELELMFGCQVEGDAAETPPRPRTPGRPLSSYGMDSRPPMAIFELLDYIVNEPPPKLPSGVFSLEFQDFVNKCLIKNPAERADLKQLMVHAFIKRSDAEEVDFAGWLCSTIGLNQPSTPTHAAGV

What is called IC50 is the point on the concentration scale where inhibition reaches its midpoint. Lower therefore signals inhibition by little substance. By inhibition is commonly meant the share of the control response that was lost under treatment. In data set [1], `Cc1cc(I)ccc1Nc1ccc(Cl)cc1C(=O)NCC(=O)O` [Example 40, [5-Chloro-2-(4-iodo-2-methyl-phenylamino)-benzoylamno]-acetic acid] gave an IC50 of 651 nM. Besides, at 30 µM the inhibition in data set [2] (at 30 μM) was 30%.
What is called melting point is the temperature of the solid-liquid transition. `Cc1cc(I)ccc1Nc1cc(F)ccc1CO` [Example 49, 4-Fluoro-2-(4-iodo-2-methyl-2henylamino)-benzyl alcohol] gave a melting point of 99 to 100.5 °C. In data set [1], the IC50 amounted to 418 nM.
For `Cc1cc(I)ccc1Nc1c(C(=O)NCCO)cc(Br)c(F)c1F` [Example 53, 5-Bromo-3,4-difluoro-N-(2-hydroxy-ethyl)-2-(4-iodo-2-methyl-phenylamino)-benzamide], the half-inhibitory concentration (IC50) in data set [1] was found to be 47 nM; in data set [2], 540 nM.
For the compound `Cc1cc(I)ccc1Nc1ccccc1-c1nnn[nH]1` [Example 208], the melting point is 231 °C (dec.). Further, the IC50 in data set [1] was determined as 1215 nM.
`Cc1cc(I)ccc1Nc1ccc([N+](=O)[O-])cc1-c1nnn[nH]1` [Example 209] showed a melting point of 205 to 208 °C. In data set [1], this compound yielded an IC50 of 1372 nM.
